Results taken from the CheMixHub ionic liquid set.

Assay: xn = mol fraction of the nth substance listed
Details: 100 kPa

CCCC[N+]1(C)CCCC1.N#C[C-](C#N)C#N + O
Details	electrical conductivity [S/m]	viscosity [mPa·s]
288.15 K, x2 = 0.0718	0.723	40.02
288.15 K, x2 = 0.1358	0.799	35.64
288.15 K, x2 = 0.1942	0.872	32.15
288.15 K, x2 = 0.2886	0.993	27.21
288.15 K, x2 = 0.3569	1.09	24.1
288.15 K, x2 = 0.431	1.21	21.17
288.15 K, x2 = 0.5238	1.38	17.74
288.15 K, x2 = 0.6162	1.55	15
288.15 K, x2 = 0.7143	1.8	12.05
288.15 K, x2 = 0.7708	1.9	10.98
293.15 K, x2 = 0.0718	0.882	32.78
293.15 K, x2 = 0.1358	0.957	29.3
293.15 K, x2 = 0.1942	1.04	26.51
293.15 K, x2 = 0.2886	1.18	22.51
293.15 K, x2 = 0.3569	1.3	20
293.15 K, x2 = 0.431	1.44	17.55
293.15 K, x2 = 0.5238	1.63	14.75
293.15 K, x2 = 0.6162	1.86	12.41
293.15 K, x2 = 0.7143	2.14	9.96
293.15 K, x2 = 0.7708	2.26	9.06
298.15 K, x2 = 0.0718	1.05	27.26
298.15 K, x2 = 0.1358	1.13	24.45
298.15 K, x2 = 0.1942	1.23	22.18
298.15 K, x2 = 0.2886	1.39	18.9
298.15 K, x2 = 0.3569	1.52	16.78
298.15 K, x2 = 0.431	1.69	14.76
298.15 K, x2 = 0.5238	1.92	12.43
298.15 K, x2 = 0.6162	2.18	10.42
298.15 K, x2 = 0.7143	2.52	8.36
298.15 K, x2 = 0.7708	2.67	7.58
303.15 K, x2 = 0.0718	1.22	22.88
303.15 K, x2 = 0.1358	1.32	20.68
303.15 K, x2 = 0.1942	1.43	18.8
303.15 K, x2 = 0.2886	1.61	16.06
303.15 K, x2 = 0.3569	1.76	14.28
303.15 K, x2 = 0.431	1.96	12.58
303.15 K, x2 = 0.5238	2.22	10.62
303.15 K, x2 = 0.6162	2.52	8.87
303.15 K, x2 = 0.7143	2.93	7.1
303.15 K, x2 = 0.7708	3.09	6.47
308.15 K, x2 = 0.0718	1.42	19.58
308.15 K, x2 = 0.1358	1.53	17.69
308.15 K, x2 = 0.1942	1.65	16.13
308.15 K, x2 = 0.2886	1.85	13.82
308.15 K, x2 = 0.3569	2.03	12.3
308.15 K, x2 = 0.431	2.22	10.84
308.15 K, x2 = 0.5238	2.56	9.18
308.15 K, x2 = 0.6162	2.9	7.65
308.15 K, x2 = 0.7143	3.35	6.11
308.15 K, x2 = 0.7708	3.54	5.56
313.15 K, x2 = 0.0718	1.62	16.87
313.15 K, x2 = 0.1358	1.74	15.26
313.15 K, x2 = 0.1942	1.87	13.96
313.15 K, x2 = 0.2886	2.11	12
313.15 K, x2 = 0.3569	2.3	10.7
313.15 K, x2 = 0.431	2.54	9.44
313.15 K, x2 = 0.5238	2.89	8.02
313.15 K, x2 = 0.6162	3.28	6.68
313.15 K, x2 = 0.7143	3.81	5.31
313.15 K, x2 = 0.7708	4.02	4.83
318.15 K, x2 = 0.0718	1.84	14.68
318.15 K, x2 = 0.1358	1.97	13.34
318.15 K, x2 = 0.1942	2.12	12.27
318.15 K, x2 = 0.2886	2.37	10.52
318.15 K, x2 = 0.3569	2.6	9.39
318.15 K, x2 = 0.431	2.87	8.29
318.15 K, x2 = 0.5238	3.25	7.06
318.15 K, x2 = 0.6162	3.7	5.83
318.15 K, x2 = 0.7143	4.28	4.66
318.15 K, x2 = 0.7708	4.53	4.24
323.15 K, x2 = 0.0718	2.07	12.88
323.15 K, x2 = 0.1358	2.22	11.74
323.15 K, x2 = 0.1942	2.37	10.81
323.15 K, x2 = 0.2886	2.66	9.3
323.15 K, x2 = 0.3569	2.9	8.31
323.15 K, x2 = 0.431	3.19	7.34
323.15 K, x2 = 0.5238	3.63	6.28
323.15 K, x2 = 0.6162	4.12	5.16
323.15 K, x2 = 0.7143	4.78	4.13
323.15 K, x2 = 0.7708	5.06	3.75
328.15 K, x2 = 0.0718	2.31	11.39
328.15 K, x2 = 0.1358	2.48	10.41
328.15 K, x2 = 0.1942	2.65	9.6
328.15 K, x2 = 0.2886	2.96	8.28
328.15 K, x2 = 0.3569	3.21	7.41
328.15 K, x2 = 0.431	3.54	6.56
328.15 K, x2 = 0.5238	4.02	5.63
328.15 K, x2 = 0.6162	4.57	4.61
328.15 K, x2 = 0.7143	5.29	3.68
328.15 K, x2 = 0.7708	5.61	3.35
333.15 K, x2 = 0.0718	2.58	10.14
333.15 K, x2 = 0.1358	2.75	9.29
333.15 K, x2 = 0.1942	2.93	8.58
333.15 K, x2 = 0.2886	3.27	7.42
333.15 K, x2 = 0.3569	3.54	6.65
333.15 K, x2 = 0.431	3.91	5.89
333.15 K, x2 = 0.5238	4.43	5.07
333.15 K, x2 = 0.6162	5.01	4.15
333.15 K, x2 = 0.7143	5.83	3.3
333.15 K, x2 = 0.7708	6.17	3.01
